ChEMBL document CHEMBL4118066, “QSAR-driven design, synthesis and discovery of potent chalcone derivatives with antitubercular activity” (Eur J Med Chem, 2017)
Converted amounts (≈) assume the structure as drawn.

Experiments:
[1] = tested on: Mycobacterium marinum; test: Antimycobacterial activity against Mycobacterium marinum ATCC 927 after 7 days under normoxic condition by microplate Alamar blue assay; format: functional; conditions: ATCC 927, 168 h
[2] = tested on: Candida albicans; test: Antifungal activity against Candida albicans ATCC 90028 after 36 to 48 hrs; format: functional
[3] = tested on: Mycobacterium kansasii; test: Antimycobacterial activity against Mycobacterium kansasii ATCC 12478 after 7 days under normoxic condition by microplate Alamar blue assay; format: functional; conditions: ATCC 12478, 168 h
[4] = in vitro; conditions: monkey, Vero cells
Description: Selectivity index, ratio of IC50 for African green monkey Vero cells to MIC90 for Mycobacterium tuberculosis H37Rv ATCC 27294 under normoxic condition

[5] = tested on: Mycolicibacterium smegmatis; test: Antimycobacterial activity against Mycobacterium smegmatis ATCC MC2155 after 7 days under normoxic condition by microplate Alamar blue assay; format: functional; conditions: str. MC2 155, 168 h
[6] = tested on: Staphylococcus aureus; test: Antibacterial activity against Staphylococcus aureus ATCC 29213 after 16 to 20 hrs; format: functional
[7] = tested on: Mycobacterium tuberculosis; test: Antitubercular activity against Mycobacterium tuberculosis H37Rv ATCC 27294 treated for 10 days under hypoxic condition followed by 28 hrs of normoxic recovery; format: functional
[8] = tested on: Mycobacterium tuberculosis; test: microbe, parasite or virus in culture; format: functional; conditions: H37Rv ATCC 27294, 168 h
Description: Antitubercular activity against Mycobacterium tuberculosis H37Rv ATCC 27294 after 7 days under normoxic condition by microplate Alamar blue assay

[9] = tested on: Mycobacteroides abscessus; test: Antimycobacterial activity against Mycobacterium abscessus ATCC 19977 after 7 days under normoxic condition by microplate Alamar blue assay; format: functional; conditions: ATCC 19977, 168 h
[10] = tested on: Mycobacterium avium; test: Antimycobacterial activity against Mycobacterium avium ATCC 15769 after 7 days under normoxic condition by microplate Alamar blue assay; format: functional; conditions: ATCC 15769, 168 h
[11] = tested on: Mycobacteroides chelonae; test: Antimycobacterial activity against Mycobacterium chelonae ATCC 35752 after 7 days under normoxic condition by microplate Alamar blue assay; format: functional; conditions: ATCC 35752, 168 h
[12] = tested on: Escherichia coli; test: Antibacterial activity against Escherichia coli ATCC 25922 after 16 to 20 hrs; format: functional

Compound	MIC90 [1] [µM]	MIC90 [2] [µM]	MIC90 [3] [µM]	selectivity ratio [4]	MIC90 [5] [µM]	MIC90 [6] [µM]	MIC90 [7] [µM]	MIC90 [8] [µM]	MIC90 [9] [µM]	MIC90 [10] [µM]	MIC90 [11] [µM]	MIC90 [12] [µM]
CSc1ccc(C(=O)/C=C/c2ccc([N+](=O)[O-])s2)cc1	> 10	> 10	3.86 (≈ 1.18 µg/mL)	222	> 10	> 10	5.96 (≈ 1.82 µg/mL)	0.45 (≈ 0.137 µg/mL)	> 10	6.89 (≈ 2.1 µg/mL)	> 10	> 10
COc1ccc(/C=C/C(=O)c2cccc(I)c2)cc1	> 10	> 10	9.4 (≈ 3.42 µg/mL)	20	> 10	> 10	> 10	4.9 (≈ 1.78 µg/mL)	> 10	9.64 (≈ 3.51 µg/mL)	> 10	> 10
O=C(/C=C/c1ccc([N+](=O)[O-])o1)c1ccc(I)cc1	> 10	> 10	0.59 (≈ 0.218 µg/mL)	166	4.62 (≈ 1.71 µg/mL)	> 10	4.12 (≈ 1.52 µg/mL)	0.6 (≈ 0.221 µg/mL)	> 10	2.38 (≈ 0.878 µg/mL)	> 10	> 10
O=C(/C=C/c1ccc([N+](=O)[O-])o1)c1ccc(-c2ccccc2)cc1	> 10	> 10	0.49 (≈ 0.156 µg/mL)	25	> 10	> 10	3.18 (≈ 1.02 µg/mL)	3.91 (≈ 1.25 µg/mL)	> 10	1.27 (≈ 0.406 µg/mL)	> 10	> 10
COc1ccc(/C=C/C(=O)c2cccc(Br)c2)cc1	> 10	> 10	9.21 (≈ 2.92 µg/mL)	11	> 10	> 10	8.2 (≈ 2.6 µg/mL)	8.54 (≈ 2.71 µg/mL)	> 10	9.82 (≈ 3.11 µg/mL)	> 10	> 10
CCCCc1ccc(C(=O)/C=C/c2ccc([N+](=O)[O-])o2)cc1	> 10	> 10	0.58 (≈ 0.174 µg/mL)	57	> 10	2.23 (≈ 0.667 µg/mL)	4.21 (≈ 1.26 µg/mL)	1.31 (≈ 0.392 µg/mL)	> 10	3.07 (≈ 0.919 µg/mL)	> 10	> 10
Cc1cccc(C(=O)/C=C/c2ccc([N+](=O)[O-])o2)c1	2.39 (≈ 0.615 µg/mL)	> 10	0.49 (≈ 0.126 µg/mL)	43	> 10	2.23 (≈ 0.574 µg/mL)	4.75 (≈ 1.22 µg/mL)	1.27 (≈ 0.327 µg/mL)	> 10	1.92 (≈ 0.494 µg/mL)	> 10	> 10
CC(C)(C)c1ccc(C(=O)/C=C/c2ccc([N+](=O)[O-])s2)cc1	> 10	> 10	0.92 (≈ 0.29 µg/mL)	454	> 10	> 10	4.18 (≈ 1.32 µg/mL)	0.22 (≈ 0.0694 µg/mL)	> 10	1.08 (≈ 0.341 µg/mL)	> 10	> 10
